The structures appear in SMILES notation.

For orientation: Ki means the dissociation constant of the complex between target and ligand, obtained from inhibition or displacement. Higher therefore signals a looser hold on the target.

Assay [1] concerns the target T1, human m1 muscarinic acetylcholine receptor expressed in CHO cells (Homo sapiens, UniProt P11229).
T1 construct: purchased Receptor Biology, Inc; host or cells: CHO cells
T1 sequence (P11229 1-460): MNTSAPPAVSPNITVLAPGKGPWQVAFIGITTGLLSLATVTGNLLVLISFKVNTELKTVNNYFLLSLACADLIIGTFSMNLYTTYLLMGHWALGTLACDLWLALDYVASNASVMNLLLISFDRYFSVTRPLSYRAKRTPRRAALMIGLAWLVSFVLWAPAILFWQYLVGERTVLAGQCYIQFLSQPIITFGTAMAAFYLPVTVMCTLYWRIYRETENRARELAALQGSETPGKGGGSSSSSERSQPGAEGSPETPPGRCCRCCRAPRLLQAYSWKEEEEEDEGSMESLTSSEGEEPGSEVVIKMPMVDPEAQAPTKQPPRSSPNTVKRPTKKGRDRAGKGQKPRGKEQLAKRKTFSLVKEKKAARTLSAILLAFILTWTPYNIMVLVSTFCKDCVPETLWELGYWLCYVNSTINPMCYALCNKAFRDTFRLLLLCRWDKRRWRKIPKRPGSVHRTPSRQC
Description: Inhibition of [3H]-N-methylscopolamine binding to muscarinic m1 receptor. Particulars: 0.2 nM [3H]-N-methylscopolamine. The procedure:
(§1) These tests were performed according to a modification of the method of Hargreaves, et al. (Br. J. Pharmacol. 107: 494-501, 1992). Namely, muscarinic acetylcholine receptors of human m1, m2, m3, m4 and m5 expressed in CHO cells (Receptor Biology, Inc.) were incubated with 0.2 nM [^3H]-N-methylscopolamine (82Ci/mmol, New England Nuclear, Inc.) and a test compound to be tested in 0.5 ml of 50 mM Tris-HCl, 10 mM MgCl2, 1 mM EDTA solution (pH 7.4) for 120 minutes at room temperature (about 20-25° C.), followed by suction filtration over a glass filter (UniFilter plate-GF/C; Packard). Then the filter was washed four times with 1 ml of ice-cold Tris-HCl buffer and dried at 50° C. for an hour. After adding a scintillator (Microscinti 0; Packard), the radioactivity of [^3H]-N-methylscopolamine binding to the filter was counted with a microplate scintillation counter (TopCount™; Packard). Non-specific receptor binding of [^3H]-N-methylscopolamine was measured by adding 1 μM N-methylscopolamine.

Assay [2] concerns the target T2, human m2 muscarinic acetylcholine receptor expressed in CHO cells (Homo sapiens, UniProt P08172).
T2 construct: purchased Receptor Biology, Inc; host or cells: CHO cells
T2 sequence (P08172 1-466): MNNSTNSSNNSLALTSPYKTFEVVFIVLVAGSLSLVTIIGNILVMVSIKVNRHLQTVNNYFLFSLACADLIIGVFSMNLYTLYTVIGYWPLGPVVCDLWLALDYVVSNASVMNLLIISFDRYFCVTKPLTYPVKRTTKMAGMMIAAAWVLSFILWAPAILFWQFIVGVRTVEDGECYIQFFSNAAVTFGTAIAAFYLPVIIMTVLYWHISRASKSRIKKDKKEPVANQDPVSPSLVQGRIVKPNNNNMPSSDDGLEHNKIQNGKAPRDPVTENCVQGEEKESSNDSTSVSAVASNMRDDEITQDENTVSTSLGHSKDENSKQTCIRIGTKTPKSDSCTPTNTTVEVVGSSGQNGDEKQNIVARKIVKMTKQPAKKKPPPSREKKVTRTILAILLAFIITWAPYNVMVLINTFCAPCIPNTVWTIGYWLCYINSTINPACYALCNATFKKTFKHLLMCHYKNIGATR
Description: Inhibition of [3H]-N-methylscopolamine binding to muscarinic m2 receptor. Particulars: 0.2 nM [3H]-N-methylscopolamine. The procedure:
as §1

For assay [3], the target named is T3, human m4 muscarinic acetylcholine receptor expressed in CHO cells (Homo sapiens, UniProt P08173).
T3 construct: purchased Receptor Biology, Inc; host or cells: CHO cells
T3 sequence (P08173 1-479): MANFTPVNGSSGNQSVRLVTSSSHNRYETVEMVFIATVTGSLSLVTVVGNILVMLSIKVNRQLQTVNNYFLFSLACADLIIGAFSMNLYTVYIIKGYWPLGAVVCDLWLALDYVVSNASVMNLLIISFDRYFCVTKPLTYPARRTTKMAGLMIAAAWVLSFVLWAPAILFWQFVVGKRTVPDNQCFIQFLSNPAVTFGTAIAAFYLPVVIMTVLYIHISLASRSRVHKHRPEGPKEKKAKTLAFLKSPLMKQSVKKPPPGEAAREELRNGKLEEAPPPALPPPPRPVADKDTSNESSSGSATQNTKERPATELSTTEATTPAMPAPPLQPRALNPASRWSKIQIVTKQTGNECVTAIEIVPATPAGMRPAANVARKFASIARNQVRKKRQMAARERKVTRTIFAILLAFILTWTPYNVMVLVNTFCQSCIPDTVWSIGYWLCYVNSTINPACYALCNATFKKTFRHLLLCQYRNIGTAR
Description: Inhibition of [3H]-N-methylscopolamine binding to muscarinic m4 receptor. Particulars: 0.2 nM [3H]-N-methylscopolamine. The method, then:
as §1

Assay [4] addresses T4, human m5 muscarinic acetylcholine receptor expressed in CHO cells (Homo sapiens, UniProt P08912).
T4 construct: purchased Receptor Biology, Inc; host or cells: CHO cells
T4 sequence (P08912 1-532): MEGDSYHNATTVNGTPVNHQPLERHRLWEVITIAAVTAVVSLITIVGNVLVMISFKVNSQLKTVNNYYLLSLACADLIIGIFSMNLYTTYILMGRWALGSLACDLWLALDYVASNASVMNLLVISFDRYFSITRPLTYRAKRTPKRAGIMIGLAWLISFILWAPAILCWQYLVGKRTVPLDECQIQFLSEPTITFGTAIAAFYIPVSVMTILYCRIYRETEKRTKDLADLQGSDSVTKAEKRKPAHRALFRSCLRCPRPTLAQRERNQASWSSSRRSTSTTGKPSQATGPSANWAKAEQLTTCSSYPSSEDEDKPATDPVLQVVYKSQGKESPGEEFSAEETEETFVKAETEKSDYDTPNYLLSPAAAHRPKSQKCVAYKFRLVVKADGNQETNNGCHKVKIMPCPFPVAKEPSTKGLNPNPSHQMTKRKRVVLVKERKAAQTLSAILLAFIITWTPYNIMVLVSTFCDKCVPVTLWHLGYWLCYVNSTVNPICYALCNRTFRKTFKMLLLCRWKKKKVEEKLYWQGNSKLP
Description: Inhibition of [3H]-N-methylscopolamine binding to muscarinic m5 receptor. Particulars: 0.2 nM [3H]-N-methylscopolamine. The method, then: as §1

In assay [5] the target is T5, human m3 muscarinic acetylcholine receptor expressed in CHO cells (Homo sapiens, UniProt P20309).
T5 construct: purchased Receptor Biology, Inc; host or cells: CHO cells
The assay is described as follows: Inhibition of [3H]-N-methylscopolamine binding to muscarinic m3 receptor. Particulars: for Ki: human m3 in CHO cells, 0.2 nM [3H]-N-methylscopolamine; for Selectivity m1/m3: ratio of Ki m1 to Ki m3; for Selectivity m2/m3: ratio of Ki m2 to Ki m3; for Selectivity m4/m3: ratio of Ki m4 to Ki m3; for Selectivity m5/m3: ratio of Ki m5 to Ki m3. The method, then:
as §1

The target of another assay is T6, M3 receptor (Canis lupus familiaris, UniProt A0A8I3N190).
T6 construct: from tissue; host or cells: whole animal, male beagle dogs (in vivo, airway)
The assay is described as follows: Antagonism to M3 receptor: bronchodilation in anesthetized dogs (methacholine provocation test). The following applies: inhalation of 1 mg/ml for 10 minutes, methacholine threshold four hours after administration. The format is in vivo, beagle dogs. The method, then:
The bronchodilation action of inhaled test compound was evaluated by measuring the compounds' inhibitory action on respiratory resistance-increasing reaction induced by a methacholine provocation test. For the experiment, 12 to 36 months old male beagle dogs (weighing 10-15 kg) were used. After being anesthetized by intravenous pentobarbital administration (30 mg/kg), the dogs were intubated cannulae in their trachea. After their respiration became stable, the cannulae were connected with Astograph (TCK-6100H, Chest) and a methacholine provocation test by 3 Hz oscillation method was conducted. […] The methacholine concentration at which the respiratory resistance increased to twice the initial value was recorded as the methacholine reaction threshold value. Before evaluating the test compounds, the methacholine reaction threshold value^1) under no drug treatment was measured at least twice at a week's interval, to select the dogs showing reproducible reaction.
The inhaling administration of each test compound (1 mg/ml) was conducted for 10 minutes under pentobarbital anesthetization (30 mg/kg, i.v.), with the nebulizer in the Astograph. […] The bronchodilator activity (shift value) of each tested compound was determined according to the following equation: […]

T5 sequence (P20309 whole entry): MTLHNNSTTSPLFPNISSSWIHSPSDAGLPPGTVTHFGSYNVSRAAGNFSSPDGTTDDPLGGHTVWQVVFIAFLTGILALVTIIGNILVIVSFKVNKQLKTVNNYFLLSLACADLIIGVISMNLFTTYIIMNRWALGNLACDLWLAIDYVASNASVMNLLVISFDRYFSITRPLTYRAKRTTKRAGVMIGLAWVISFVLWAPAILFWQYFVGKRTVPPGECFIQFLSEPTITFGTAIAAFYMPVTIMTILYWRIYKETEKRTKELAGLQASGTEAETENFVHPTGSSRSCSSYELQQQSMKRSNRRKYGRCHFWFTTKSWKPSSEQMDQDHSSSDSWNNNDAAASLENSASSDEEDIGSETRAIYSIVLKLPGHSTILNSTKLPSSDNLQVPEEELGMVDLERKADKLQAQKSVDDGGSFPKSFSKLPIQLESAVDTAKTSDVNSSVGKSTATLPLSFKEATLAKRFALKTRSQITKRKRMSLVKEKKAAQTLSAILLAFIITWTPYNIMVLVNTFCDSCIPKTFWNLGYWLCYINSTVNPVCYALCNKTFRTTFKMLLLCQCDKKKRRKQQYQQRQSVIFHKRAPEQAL
T6 sequence (A0A8I3N190 1-590): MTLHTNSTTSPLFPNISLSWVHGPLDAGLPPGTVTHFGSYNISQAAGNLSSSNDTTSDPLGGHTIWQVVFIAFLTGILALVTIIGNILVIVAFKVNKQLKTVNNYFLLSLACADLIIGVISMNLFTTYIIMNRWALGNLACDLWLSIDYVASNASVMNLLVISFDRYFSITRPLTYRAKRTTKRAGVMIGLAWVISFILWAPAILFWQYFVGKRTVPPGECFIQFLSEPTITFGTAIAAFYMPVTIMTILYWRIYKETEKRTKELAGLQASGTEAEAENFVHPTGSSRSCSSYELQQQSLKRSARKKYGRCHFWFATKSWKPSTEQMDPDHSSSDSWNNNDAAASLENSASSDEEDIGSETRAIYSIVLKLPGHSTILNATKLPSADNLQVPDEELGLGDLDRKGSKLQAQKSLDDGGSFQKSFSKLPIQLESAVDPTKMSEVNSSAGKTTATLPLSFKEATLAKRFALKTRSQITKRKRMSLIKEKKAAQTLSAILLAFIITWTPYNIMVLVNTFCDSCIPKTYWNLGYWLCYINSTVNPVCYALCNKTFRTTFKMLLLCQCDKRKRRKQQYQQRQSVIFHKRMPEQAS

For `CC[C@H](C)C[N+]1(CC)CCC[C@@H](CNC(=O)CCCCCNC(=O)CC(c2ccccc2)(c2ccccc2)c2ccccc2)C1.[Cl-]` (stereo partly drawn) [Example 150, (3S)-1-ethyl-1-{(2S)-2-methylbutyl}-3-({(6-{(3,3,3-triphenylpropanoyl)amino}hexanoyl)amino}methyl)piperidinium chloride], the Ki in assay [1] was 150 nM. Besides, in assay [2], the Ki is 490 nM. For the same compound, the Ki in assay [3] was determined as 310 nM. The same compound returned a Ki in assay [4] of 850 nM. Moreover, in assay [5], the Ki was 4.7 nM, the “Selectivity m1/m3” value came out at 32 times, the “Selectivity m2/m3” value came out at 100 times and the “Selectivity m4/m3” value was found to be 66 times. In assay [5], the “Selectivity m5/m3” value was found to be 180 times.

With `O=C(NC[C@H]1CCC[N+]2(CCCC2)C1)[C@H]1CCCN1C(=O)[C@@H]1C[C@@H](O)CN1C(=O)CC(c1ccccc1)(c1ccccc1)c1ccccc1.[Cl-]` [Example 151, (7R)-7-({({(2R)-1-({(2S,4R)-4-hydroxy-1-(3,3,3-triphenylpropanoyl)-2-pyrrolidinyl}carbonyl)-2-pyrrolidinyl}carbonyl)amino}methyl)-5-azoniaspiro [4.5]decane chloride], the Ki in assay [1] amounted to 450 nM; in assay [2], 460 nM; in assay [3], 74 nM; in assay [4] it was 890 nM; in assay [5] it was 3.5 nM. The “Shift (fold) Airway constriction M3” value on M3 receptor was greater than 40.0 fold. In assay [5], the “Selectivity m1/m3” value worked out at 130 times. The “Selectivity m2/m3” value in assay [5] came out at 130 times. The “Selectivity m4/m3” value in assay [5] worked out at 21 times. Besides, the “Selectivity m5/m3” value in assay [5] stood at 250 times.

The values above are taken from patent US7452908B2, “Amide derivatives” (Banyu Pharmaceutical Co., Ltd., priority 1999, dated 2008).
